This series in a line: Solubility of Compound 1A in lipids, oils and acrylate monomers. The class given is physicochemical. An excerpt:
In General, the Constituents of a PACA Particle Contains: • Aqueous phase: Brij L35, Kolliphor HS15 and HCl to adjust pH • Oil phase: acrylate monomer (ethyl hexylcyanoacrylate, ethyl butylcyanoacrylate, 1-heptyl cyanoacrylate, and 2-phenylethyl cyanoacrylate/butyl cyanoacrylate), Miglyol, vanillin, Compound 1A.
Lipid-based particles were investigated as a vehicle for Compound 1A.

With `C[C@@H]1[C@H](O)[C@@H](C)/C=C/C=C/C=C/C=C/C=C/C=C/C=C/[C@H](O[C@@H]2O[C@H](C)[C@@H](O)[C@H](N)[C@@H]2O)C[C@@H]2O[C@](O)(C[C@@H](O)[C@H](O)CC[C@@H](O)C[C@@H](O)C[C@@H](O)CC(=O)O[C@H]1C)C[C@H](O)[C@H]2C` [Compound 1A], the solubility result runs as follows: (in 1-heptyl cyanoacrylate and 2-phenylethyl cyanoacrylate/butyl cyanoacrylate) “unable to dissolve”; (in the tested oils and lipids listed) “None of the tested oils or lipids dissolved Compound 1A well”; (in trans-cinnamaldehyde) “somewhat soluble”.

The values are drawn from patent publication US20230138395A1, “PHARMACEUTICAL COMPOSITIONS OF A THERAPEUTIC POLYENE MACROLIDE AND METHODS OF THEIR USE” (priority 2020, published 2023).
